Laboratory results reported in PubChem BioAssay AID248 (DTP/NCI, 2004).
“And” between values parts separate entries of the source, which are not always exact repeats. Equal entries are not always repeated. Inconclusive results and toxic doses are left out. Rule as the data show it: active = T/C of 150% or more; inactive = T/C below 125%.

System: L1210 leukemia ip in BDF1 mice, survival T/C
Test: NCI In Vivo Anticancer Drug Screen. Data for tumor model L1210 Leukemia (intraperitoneal) in B6D2F1 (BDF1) mice
Conditions: endpoint: mean survival time, higher = longer survival
In short: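 Transplantable tumor model; survival measured in treated vs vehicle control mice. Value = treated/control.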

[1] = dose: 100.0 mg/kg/injection, schedule: Q04DX002 (ip), vehicle: saline with Tween-80
[2] = dose: 200.0 mg/kg/injection, schedule: Q04DX002 (ip), vehicle: saline with Tween-80
[3] = dose: 400.0 mg/kg/injection, schedule: Q04DX002 (ip), vehicle: saline with Tween-80
[4] = dose: 25.0 mg/kg/injection, schedule: Q01DX009 (ip), vehicle: saline
[5] = dose: 50.0 mg/kg/injection, schedule: Q01DX009 (ip), vehicle: saline
[6] = dose: 100.0 mg/kg/injection, schedule: Q01DX009 (ip), vehicle: Klucel (hydroxypropylcellulose) (HPC)
[7] = dose: 200.0 mg/kg/injection, schedule: Q01DX009 (ip), vehicle: Klucel (hydroxypropylcellulose) (HPC)

Measured: T/C

C=Cc1ccc(C(=O)O)cc1
inactive: [1] 98 % of control | [2] 98 % of control | [3] 106 % of control

OCC1SC(n2cnc3c(=S)nc[nH]c32)C(O)C1O (stereo unspecified)
inactive: dose: 200.0 mg/kg/injection, schedule: Q01DX005 (ip), vehicle: saline 103 % of control

CC(C)(C)C1CC=CCC1 (stereo unspecified)
inactive: dose: 50.0 mg/kg/injection, schedule: Q01DX009 (ip), vehicle: saline sonified 96 % of control | dose: 100.0 mg/kg/injection, schedule: Q01DX009 (ip), vehicle: saline sonified 102 % of control | dose: 200.0 mg/kg/injection, schedule: Q01DX009 (ip), vehicle: saline sonified 100 % of control

Cn1ccc(=O)c2cc([N+](=O)[O-])ccc21
inactive: dose: 25.0 mg/kg/injection, schedule: Q01DX009 (ip), vehicle: water 90 % of control | dose: 50.0 mg/kg/injection, schedule: Q01DX009 (ip), vehicle: water 93 % of control | dose: 100.0 mg/kg/injection, schedule: Q01DX009 (ip), vehicle: water 86 % of control | [1] 104 % of control and 106 % of control | dose: 100.0 mg/kg/injection, schedule: Q04DX003 (ip), vehicle: saline with Tween-80 115 % of control and 90 % of control | dose: 200.0 mg/kg/injection, schedule: Q01DX009 (ip), vehicle: water 95 % of control | [2] 109 % of control and 87 % of control | dose: 200.0 mg/kg/injection, schedule: Q04DX003 (ip), vehicle: saline with Tween-80 97 % of control and 102 % of control | [3] 87 % of control and 88 % of control | dose: 400.0 mg/kg/injection, schedule: Q04DX003 (ip), vehicle: saline with Tween-80 88 % of control

C[n+]1cc2cc(O)c(O)cc2c2ccc3cc(O)c(O)cc3c21
inactive: dose: 40.0 mg/kg/injection, schedule: Q01DX009 (ip), vehicle: saline 102 % of control | dose: 80.0 mg/kg/injection, schedule: Q01DX009 (ip), vehicle: saline 107 % of control | dose: 120.0 mg/kg/injection, schedule: Q01DX009 (ip), vehicle: saline 98 % of control | dose: 240.0 mg/kg/injection, schedule: Q01DX009 (ip), vehicle: saline 98 % of control

CC(=O)OCC(=O)C12OC1CC1C3CCC4CC(=O)CCC4(C)C3CC(=O)C12C (stereo unspecified)
inactive: dose: 100.0 mg/kg/injection, schedule: Q01DX001 (ip), vehicle: other 89 % of control | dose: 200.0 mg/kg/injection, schedule: Q01DX001 (ip), vehicle: other 90 % of control | dose: 400.0 mg/kg/injection, schedule: Q01DX001 (ip), vehicle: other 97 % of control

COC1=CCC2C(=O)OC(=O)C2C1 (stereo unspecified)
inactive: [4] 90 % of control | [5] 94 % of control | dose: 100.0 mg/kg/injection, schedule: Q01DX009 (ip), vehicle: saline 100 % of control | dose: 200.0 mg/kg/injection, schedule: Q01DX009 (ip), vehicle: saline 109 % of control | dose: 400.0 mg/kg/injection, schedule: Q01DX009 (ip), vehicle: saline 100 % of control

O=c1ccc2cc3cc(I)c(O)c(I)c3oc-2c1I
inactive: [6] 101 % of control | [7] 99 % of control

CNC(C)CC1CCCCC1 (stereo unspecified)
inactive: dose: 0.78 mg/kg/injection, schedule: Q04DX003 (ip), vehicle: saline 94 % of control | dose: 1.56 mg/kg/injection, schedule: Q01DX009 (ip), vehicle: saline 100 % of control | dose: 1.56 mg/kg/injection, schedule: Q04DX003 (ip), vehicle: saline 98 % of control | dose: 3.12 mg/kg/injection, schedule: Q01DX009 (ip), vehicle: saline 102 % of control | dose: 3.12 mg/kg/injection, schedule: Q04DX003 (ip), vehicle: saline 98 % of control | dose: 6.25 mg/kg/injection, schedule: Q01DX009 (ip), vehicle: saline 97 % of control | dose: 6.25 mg/kg/injection, schedule: Q04DX003 (ip), vehicle: saline 98 % of control | dose: 12.5 mg/kg/injection, schedule: Q01DX009 (ip), vehicle: saline 96 % of control | dose: 12.5 mg/kg/injection, schedule: Q04DX003 (ip), vehicle: saline 100 % of control | [4] 97 % of control | dose: 25.0 mg/kg/injection, schedule: Q04DX003 (ip), vehicle: saline with Tween-80 94 % of control | [5] 106 % of control

CCOC(=O)C(CC#N)C(=O)OCC
inactive: dose: 75.0 mg/kg/injection, schedule: Q01DX001 (ip), vehicle: carboxymethylcellulose (CMC) 104 % of control | dose: 150.0 mg/kg/injection, schedule: Q01DX001 (ip), vehicle: carboxymethylcellulose (CMC) 98 % of control | dose: 300.0 mg/kg/injection, schedule: Q01DX001 (ip), vehicle: carboxymethylcellulose (CMC) 96 % of control

O=C1NC2CCC1c1ccccc12 (stereo unspecified)
inactive: dose: 50.0 mg/kg/injection, schedule: Q01DX001 (ip), vehicle: carboxymethylcellulose (CMC) 110 % of control | dose: 100.0 mg/kg/injection, schedule: Q01DX001 (ip), vehicle: carboxymethylcellulose (CMC) 105 % of control | dose: 200.0 mg/kg/injection, schedule: Q01DX001 (ip), vehicle: carboxymethylcellulose (CMC) 108 % of control

CC1CC(O)=C(c2ccccc2)P1(=O)Cc1ccccc1 (stereo unspecified)
inactive: dose: 100.0 mg/kg/injection, schedule: Q04DX003 (ip), vehicle: Klucel (hydroxypropylcellulose) (HPC) 95 % of control | dose: 200.0 mg/kg/injection, schedule: Q04DX003 (ip), vehicle: Klucel (hydroxypropylcellulose) (HPC) 95 % of control | dose: 400.0 mg/kg/injection, schedule: Q04DX003 (ip), vehicle: Klucel (hydroxypropylcellulose) (HPC) 89 % of control

NC(Cc1ccccc1)C(=O)NCCCl (stereo unspecified)
inactive: dose: 10.0 mg/kg/injection, schedule: Q01DX Z (ip), vehicle: saline 86 % of control | dose: 30.0 mg/kg/injection, schedule: Q01DX Z (ip), vehicle: saline 93 % of control | dose: 300.0 mg/kg/injection, schedule: Q01DX Z (ip), vehicle: saline 96 % of control

Nc1nc(N)c(N=O)c(=O)[nH]1
inactive: dose: 100.0 mg/kg/injection, schedule: Q01DX001 (ip), vehicle: saline 105 % of control | [6] 99 % of control | dose: 200.0 mg/kg/injection, schedule: Q01DX001 (ip), vehicle: saline 95 % of control | [7] 100 % of control | dose: 400.0 mg/kg/injection, schedule: Q01DX001 (ip), vehicle: saline 94 % of control | dose: 400.0 mg/kg/injection, schedule: Q01DX009 (ip), vehicle: Klucel (hydroxypropylcellulose) (HPC) 97 % of control
